Results on one compound are retold here after US20060094676A1, “Compositions and methods for treating cancer using compositions comprising an inhibitor of endothelin receptor activity” (priority 2004, published 2006).

The structures appear in SMILES notation.

One series concerns ETRB. As to the kind of experiment: Real-time RT-PCR of ETRB transcripts. Type of series: cell-based, human. The following applies: BQ788 treatment. The protocol: Real-time RT-PCR detection of ETRB transcripts (see legends FIG. 2) (A). ETRB protein expression compared to tubulin in SK-MEL-28 cells after 3, 5 and 7 days with (+) or without (−) BQ788 (B).
(§1) RNA was prepared from the different cell lines in different culture conditions using SV total RNA isolation kit (Promega) according to the manufacturer's protocol. For each sample RNA concentration was determined using the total RNA nano procedure of an Agilent bioanalyzer. A stock of SK-MEL-28 RNA aliquots was prepared containing 10, 20, 50, 100, 200, 500 and 1000 ng/12 μl for use as a standard curve and kept in −80° C. For the experimental unknown samples, a stock of 100 ng/12 μl RNA aliquots from each cell line and condition was prepared and stored at −80° C. For each real-time experiment one series of standard curve and unknown experimental series of aliquots was put on ice for use. Complementary DNA was prepared by adding to each tube 0.5 μl of random hexamers (Promega) and 1 μl of 10 mM dNTP mix (Promega) and incubating at 65° C. for 5 min. 4 μl of 5× M-MLV buffer (Promega), 1 μl of the RNase inhibitor RNasin (Promega) and 1 μl of M-MLV RT RNase H (Promega) were then added and the solution was incubated at 42° C. for 50 min followed by 15 min at 70° C. For real time reactions 15 μl of each cDNA sample were transferred to 3 wells in a 386 well plate. To each well we added 10 μl of TaqMan universal PCR master mix (Applied Biosystems), 1 μl of primers+probe mix (Assays-on-Demand from Applied Biosystems: EDNRB Hs00240747, BCL-2A1 Hs00187845, PARP-3 Hs00154151, VEGF Hs00173626, HIF-1α Hs00153153 and Gravin Hs00374507) and 4 μl of nuclease free water (Promega). Wells containing water instead of cDNA served as negative controls. The samples were subjected to 40 cycles of 15 sec at 95° C. and 1 min at 60° C. A standard curve of Ct versus RNA quantity was established and accordingly the Ct in the unknown samples was correlated to quantity of transcript.
Background: Quantitative PCR measures a nucleic acid by following its amplification.

The conditions of series [1]: hypertension patients and healthy volunteers; cited from earlier work.
The next series concerns VEGF. In words: Real-time RT-PCR of VEGF transcripts. It counts as cell-based, human. The note with it: BQ788 3 days. The protocol: Equal amounts of RNA from cells that were treated with BQ788 for 3 days were subjected to real-time RT-PCR analysis for the detection VEGF (A), HIF-1α (B) and Gravin (C) transcripts. Differences in expression levels are shown as x fold change and are statistically significant (p<0.05) unless a column in marked as non significant (N.S.). Sections of two representative tumors derived from a human melanoma cell line grown in nude mice and injected either with vehicle (D) or BQ788 (E) were stained with anti CD-31 to highlight blood vessels (brown staining, Lahav et al, 1999).
as §1
Real-time PCR analysis confirmed that VEGF expression levels increased 18-fold in BQ788 treated LN-met cells and 65-fold in SK-MEL-28 cells, compared to only 2-fold in primary melanoma, and no change in the Cut-met line (FIG. 5). The changes in VEGF expression levels can be explained, at least in part, by changes in the expression levels of its known regulator hypoxia inducible factor-1 oc (HIF-1α) (Maxwell, et al., Oxygen sensors and angiogenesis, Semin. Cell Dev. Biol., 13:29-37 (2002)). […]

In another series the test system is PARP-3. As to the kind of experiment: Real-time RT-PCR of PARP-3 transcripts. It counts as cell-based, human. The note with it: primary melanoma cells; BQ788 treatment. The method, then:
Equal amounts of RNA from cells that were treated with BQ788 for 3 days were subjected to real-time RT-PCR analysis for the detection of BCL-2A1 (A) and ADP ribosyltransferase 3 (B) transcripts. Total amounts are represented in A while relative (to control) values are shown in B. Differences in expression levels are shown as x fold decrease and are statistically significant (p<0.05) unless a column in marked as non significant (N.S.). Lysates of BQ788 treated cells and controls were subjected to an apoptosis ELISA detection test (C). SK-MEL-28 cells were cultured with pan caspase inhibitor (D) or with caspase 6 inhibitor (E) with or without BQ788 for 2.5 days. […] SK-MEL-28 cells were cultured for 3 days in the presence of BQ788 and assayed for caspase 6 activity (F). The difference between the columns is statistically significant (p<0.05).
RNA was prepared from the different cell lines in different culture conditions using SV total RNA isolation kit (Promega) according to the manufacturer's protocol. For each sample RNA concentration was determined using the total RNA nano procedure of an Agilent bioanalyzer. […] A standard curve of Ct versus RNA quantity was established and accordingly the Ct in the unknown samples was correlated to quantity of transcript. […]

For `CCCC[C@@H](NC(=O)[C@@H](Cc1cn(C(=O)OC)c2ccccc12)NC(=O)[C@H](CC(C)(C)C)NC(=O)N1[C@H](C)CCC[C@@H]1C)C(=O)O` [BQ788, N-cis-2,6-dimethylpiperidinocarbonyl-L-γ-methylleucyl-D-1-methoxycarbonyltrptophanyl-D-norleucine], the “reduction in ETRB mRNA expression” value is 1.49 fold in the series with ETRB (Cut-met line), 1.85 fold in the series on ETRB (LN-met line) and 11 fold with ETRB (SK-MEL-28 cells). The “ETRB expression level change” value in the series with ETRB (primary melanoma cells) is “did not show any change”. Also, the “toxicity in clinical trials” value in series [1] is listed as “not found to be toxic”. In addition, the “VEGF expression level change” value with VEGF (Cut-met line) is reported as “no change”. The “increase in VEGF expression levels” value is given as 18 fold with VEGF (LN-met cells), 65 fold in the series with VEGF (SK-MEL-28 cells) and 2 fold in the series on VEGF (primary melanoma). For the same compound, the PARP-3 levels entry in the series on PARP-3 was “did not show a decrease”.
